# ChEMBL document CHEMBL3870316, “Design, synthesis and structure-activity relationships of novel 4-phenoxyquinoline derivatives containing 1,2,4-triazolone moiety as c-Met kinase inhibitors” (Eur J Med Chem, 2016)
# Legend:
# [1] = target: Mast/stem cell growth factor receptor Kit (Homo sapiens, UniProt P10721); test: Inhibition of c-Kit (unknown origin) after 30 mins by HTRF assay
# [2] = target: Hepatocyte growth factor receptor (Homo sapiens, UniProt P08581); test: Inhibition of c-MET (unknown origin) using poly(Glu, Tyr)4:1 as substrate after 30 mins by HTRF assay
# [3] = target: Epidermal growth factor receptor (Homo sapiens, UniProt P00533); test: Inhibition of EGFR (unknown origin) after 30 mins by HTRF assay
# [4] = system: MKN-45; test: Potency index, ratio of foretinib IC50 to compound IC50 for human MKN45 cells; type: functional
# [5] = Potency index, ratio of foretinib IC50 to compound IC50 for human H460 cells; type: functional
# [6] = target: T1, Receptor-type tyrosine-protein kinase FLT3 (Homo sapiens, UniProt P36888); test: Inhibition of FLT3 (unknown origin) after 30 mins by HTRF assay
# T1 sequence (P36888 whole entry): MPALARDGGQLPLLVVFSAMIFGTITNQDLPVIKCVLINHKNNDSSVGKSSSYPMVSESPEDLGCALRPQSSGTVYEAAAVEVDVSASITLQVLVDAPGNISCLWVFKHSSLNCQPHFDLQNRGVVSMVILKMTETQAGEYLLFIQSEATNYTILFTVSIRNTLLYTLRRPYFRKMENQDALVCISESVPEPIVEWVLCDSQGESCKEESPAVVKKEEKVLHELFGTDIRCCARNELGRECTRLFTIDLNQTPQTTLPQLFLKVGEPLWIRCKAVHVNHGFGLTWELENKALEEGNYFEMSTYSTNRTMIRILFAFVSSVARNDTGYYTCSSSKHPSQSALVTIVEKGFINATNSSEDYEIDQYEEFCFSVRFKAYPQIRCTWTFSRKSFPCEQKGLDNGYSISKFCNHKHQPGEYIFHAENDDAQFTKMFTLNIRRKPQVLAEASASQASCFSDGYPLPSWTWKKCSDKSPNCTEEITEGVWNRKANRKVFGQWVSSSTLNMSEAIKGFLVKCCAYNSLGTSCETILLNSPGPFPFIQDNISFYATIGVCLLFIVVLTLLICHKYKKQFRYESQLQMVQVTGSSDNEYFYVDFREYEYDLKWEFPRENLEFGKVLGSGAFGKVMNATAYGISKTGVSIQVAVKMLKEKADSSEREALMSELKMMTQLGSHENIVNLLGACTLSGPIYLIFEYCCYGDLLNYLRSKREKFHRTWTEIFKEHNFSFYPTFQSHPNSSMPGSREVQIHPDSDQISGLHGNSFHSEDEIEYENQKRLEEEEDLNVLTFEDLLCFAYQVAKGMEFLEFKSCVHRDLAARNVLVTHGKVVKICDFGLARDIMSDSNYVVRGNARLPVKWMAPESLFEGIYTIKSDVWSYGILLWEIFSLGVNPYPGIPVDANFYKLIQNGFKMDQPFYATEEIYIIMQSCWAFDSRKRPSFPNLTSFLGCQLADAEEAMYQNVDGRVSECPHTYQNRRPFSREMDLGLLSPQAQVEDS
# [7] = Cytotoxicity against c-Met over-expressed human H460 cells assessed as cell growth inhibition after 72 hrs by MTT assay; conditions: NCI-H460, 72 h
# [8] = Cytotoxicity against c-Met over-expressed human MKN45 cells assessed as cell growth inhibition after 72 hrs by MTT assay; conditions: MKN-45, 72 h
# [9] = target: Vascular endothelial growth factor receptor 2 (Homo sapiens, UniProt P35968); test: Inhibition of VEGFR2 (unknown origin) after 30 mins by HTRF assay
# [10] = system: HT-29; test: Potency index, ratio of foretinib IC50 to compound IC50 for human HT-29 cells; type: functional
# [11] = target: Platelet-derived growth factor receptor alpha (Homo sapiens, UniProt P16234); test: Inhibition of PDGFRalpha (unknown origin) after 30 mins by HTRF assay
# [12] = species: Homo sapiens; test: Selectivity ratio of IC50 for VEGFR2 (unknown origin) to IC50 for c-MET (unknown origin)
# [13] = target: Macrophage-stimulating protein receptor (Homo sapiens, UniProt Q04912); test: Inhibition of Ron (unknown origin) after 30 mins by HTRF assay
# [14] = Cytotoxicity against c-Met over-expressed human A549 cells assessed as cell growth inhibition after 72 hrs by MTT assay; conditions: A549, 72 h
# [15] = system: A549; test: Potency index, ratio of foretinib IC50 to compound IC50 for human A549 cells; type: functional
# [16] = Cytotoxicity against c-Met over-expressed human HT-29 cells assessed as cell growth inhibition after 72 hrs by MTT assay; conditions: HT-29, 72 h
# Chain of Platelet-derived growth factor receptor alpha (P16234 whole entry): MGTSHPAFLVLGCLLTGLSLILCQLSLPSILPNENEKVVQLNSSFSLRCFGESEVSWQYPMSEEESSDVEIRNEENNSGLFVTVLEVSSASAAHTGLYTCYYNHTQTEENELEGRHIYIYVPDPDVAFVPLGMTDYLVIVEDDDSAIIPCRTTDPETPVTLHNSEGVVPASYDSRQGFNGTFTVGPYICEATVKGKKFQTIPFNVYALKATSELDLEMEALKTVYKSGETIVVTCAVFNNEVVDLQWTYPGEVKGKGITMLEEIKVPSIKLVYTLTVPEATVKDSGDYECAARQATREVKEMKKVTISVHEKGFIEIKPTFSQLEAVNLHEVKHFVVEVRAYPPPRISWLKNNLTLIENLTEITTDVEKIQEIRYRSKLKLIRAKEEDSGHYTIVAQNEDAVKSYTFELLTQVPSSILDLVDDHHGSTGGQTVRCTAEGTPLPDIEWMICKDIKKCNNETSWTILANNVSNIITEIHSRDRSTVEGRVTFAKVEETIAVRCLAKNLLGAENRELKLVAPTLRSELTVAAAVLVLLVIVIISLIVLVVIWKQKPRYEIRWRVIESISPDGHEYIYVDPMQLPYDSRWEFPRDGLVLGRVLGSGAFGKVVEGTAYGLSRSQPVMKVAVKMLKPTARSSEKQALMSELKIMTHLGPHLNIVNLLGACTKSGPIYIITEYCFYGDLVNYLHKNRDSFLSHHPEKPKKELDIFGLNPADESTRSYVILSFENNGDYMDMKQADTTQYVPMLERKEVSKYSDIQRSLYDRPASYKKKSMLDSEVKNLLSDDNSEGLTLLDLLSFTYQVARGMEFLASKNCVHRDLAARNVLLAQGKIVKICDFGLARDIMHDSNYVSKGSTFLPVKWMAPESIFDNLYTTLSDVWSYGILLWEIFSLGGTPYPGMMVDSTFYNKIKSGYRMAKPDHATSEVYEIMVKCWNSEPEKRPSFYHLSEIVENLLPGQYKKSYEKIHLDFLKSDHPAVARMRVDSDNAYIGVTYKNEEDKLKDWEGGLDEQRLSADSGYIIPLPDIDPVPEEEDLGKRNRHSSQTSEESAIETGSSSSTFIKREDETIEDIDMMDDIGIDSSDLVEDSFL
# Chain of Vascular endothelial growth factor receptor 2 (P35968 whole entry): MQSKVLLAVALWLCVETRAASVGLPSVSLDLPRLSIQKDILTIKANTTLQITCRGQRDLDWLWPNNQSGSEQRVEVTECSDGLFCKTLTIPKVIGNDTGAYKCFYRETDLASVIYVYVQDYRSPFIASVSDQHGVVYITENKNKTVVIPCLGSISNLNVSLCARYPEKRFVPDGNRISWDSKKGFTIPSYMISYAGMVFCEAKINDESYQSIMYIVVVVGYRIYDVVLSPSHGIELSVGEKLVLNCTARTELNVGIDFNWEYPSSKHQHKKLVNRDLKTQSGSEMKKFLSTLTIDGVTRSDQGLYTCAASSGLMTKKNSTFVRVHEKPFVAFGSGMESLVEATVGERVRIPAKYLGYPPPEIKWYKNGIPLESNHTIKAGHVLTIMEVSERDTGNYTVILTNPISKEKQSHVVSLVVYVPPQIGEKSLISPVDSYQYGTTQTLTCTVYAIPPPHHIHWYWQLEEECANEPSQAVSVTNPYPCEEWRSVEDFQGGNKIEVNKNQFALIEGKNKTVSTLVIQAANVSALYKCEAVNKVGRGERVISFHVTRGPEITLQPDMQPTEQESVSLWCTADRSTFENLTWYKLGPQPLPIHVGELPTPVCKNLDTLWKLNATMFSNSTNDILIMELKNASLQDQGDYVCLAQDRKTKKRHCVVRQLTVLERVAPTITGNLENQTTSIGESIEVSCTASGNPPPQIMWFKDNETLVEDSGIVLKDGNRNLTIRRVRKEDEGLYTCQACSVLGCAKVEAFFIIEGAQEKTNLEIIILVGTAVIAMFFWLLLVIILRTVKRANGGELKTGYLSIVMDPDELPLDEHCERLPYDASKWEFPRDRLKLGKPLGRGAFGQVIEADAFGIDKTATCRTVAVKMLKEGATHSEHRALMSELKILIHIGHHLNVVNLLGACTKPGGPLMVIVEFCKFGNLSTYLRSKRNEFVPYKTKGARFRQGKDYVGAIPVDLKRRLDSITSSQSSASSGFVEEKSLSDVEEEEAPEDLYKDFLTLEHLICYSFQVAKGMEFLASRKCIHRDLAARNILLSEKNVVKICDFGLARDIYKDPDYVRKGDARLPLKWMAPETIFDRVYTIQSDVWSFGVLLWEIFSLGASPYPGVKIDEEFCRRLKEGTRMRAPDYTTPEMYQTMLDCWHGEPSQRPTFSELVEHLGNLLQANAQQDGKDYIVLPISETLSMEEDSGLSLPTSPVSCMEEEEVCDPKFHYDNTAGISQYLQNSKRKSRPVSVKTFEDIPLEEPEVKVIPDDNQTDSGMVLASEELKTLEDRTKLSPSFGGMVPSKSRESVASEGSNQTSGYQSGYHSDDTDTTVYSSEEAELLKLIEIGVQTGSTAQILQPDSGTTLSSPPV
# Chain of Macrophage-stimulating protein receptor (Q04912 25-304 limits assumed): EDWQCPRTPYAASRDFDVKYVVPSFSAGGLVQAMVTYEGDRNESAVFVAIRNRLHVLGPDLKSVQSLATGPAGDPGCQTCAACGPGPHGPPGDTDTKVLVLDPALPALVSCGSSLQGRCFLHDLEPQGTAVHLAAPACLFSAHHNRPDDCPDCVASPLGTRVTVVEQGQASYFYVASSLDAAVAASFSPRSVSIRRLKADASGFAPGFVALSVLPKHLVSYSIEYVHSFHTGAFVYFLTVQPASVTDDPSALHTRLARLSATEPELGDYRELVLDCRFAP
# Chain of Macrophage-stimulating protein receptor (Q04912 310-1400 limits assumed): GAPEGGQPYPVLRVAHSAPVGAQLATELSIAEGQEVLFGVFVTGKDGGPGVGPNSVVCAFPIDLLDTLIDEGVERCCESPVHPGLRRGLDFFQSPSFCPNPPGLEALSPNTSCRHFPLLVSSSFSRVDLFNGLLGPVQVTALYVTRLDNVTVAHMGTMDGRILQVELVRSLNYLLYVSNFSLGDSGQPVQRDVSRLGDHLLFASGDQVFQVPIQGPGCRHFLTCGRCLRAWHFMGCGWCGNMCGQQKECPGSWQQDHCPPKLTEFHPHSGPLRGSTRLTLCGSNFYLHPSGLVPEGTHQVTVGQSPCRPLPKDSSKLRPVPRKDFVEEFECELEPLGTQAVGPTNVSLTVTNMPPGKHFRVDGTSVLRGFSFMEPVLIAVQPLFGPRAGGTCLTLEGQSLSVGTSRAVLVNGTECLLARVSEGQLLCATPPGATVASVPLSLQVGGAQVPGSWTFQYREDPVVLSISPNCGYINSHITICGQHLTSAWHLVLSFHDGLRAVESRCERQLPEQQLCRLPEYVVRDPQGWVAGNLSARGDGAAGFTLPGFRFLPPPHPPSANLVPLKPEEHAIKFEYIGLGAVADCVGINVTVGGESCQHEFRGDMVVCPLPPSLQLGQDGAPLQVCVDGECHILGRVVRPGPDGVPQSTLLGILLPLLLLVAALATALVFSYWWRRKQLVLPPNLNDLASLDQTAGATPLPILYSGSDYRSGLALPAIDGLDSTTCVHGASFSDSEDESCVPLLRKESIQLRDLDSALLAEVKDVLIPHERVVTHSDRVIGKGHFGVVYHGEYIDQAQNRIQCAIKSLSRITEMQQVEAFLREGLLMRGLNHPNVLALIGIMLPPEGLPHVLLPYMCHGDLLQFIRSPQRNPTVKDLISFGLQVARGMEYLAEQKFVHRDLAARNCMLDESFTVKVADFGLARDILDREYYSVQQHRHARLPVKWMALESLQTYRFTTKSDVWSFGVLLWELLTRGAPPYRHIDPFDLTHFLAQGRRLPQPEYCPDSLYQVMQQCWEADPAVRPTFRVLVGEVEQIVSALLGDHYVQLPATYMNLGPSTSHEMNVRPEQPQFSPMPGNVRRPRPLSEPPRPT
# Chain of Mast/stem cell growth factor receptor Kit (P10721 whole entry): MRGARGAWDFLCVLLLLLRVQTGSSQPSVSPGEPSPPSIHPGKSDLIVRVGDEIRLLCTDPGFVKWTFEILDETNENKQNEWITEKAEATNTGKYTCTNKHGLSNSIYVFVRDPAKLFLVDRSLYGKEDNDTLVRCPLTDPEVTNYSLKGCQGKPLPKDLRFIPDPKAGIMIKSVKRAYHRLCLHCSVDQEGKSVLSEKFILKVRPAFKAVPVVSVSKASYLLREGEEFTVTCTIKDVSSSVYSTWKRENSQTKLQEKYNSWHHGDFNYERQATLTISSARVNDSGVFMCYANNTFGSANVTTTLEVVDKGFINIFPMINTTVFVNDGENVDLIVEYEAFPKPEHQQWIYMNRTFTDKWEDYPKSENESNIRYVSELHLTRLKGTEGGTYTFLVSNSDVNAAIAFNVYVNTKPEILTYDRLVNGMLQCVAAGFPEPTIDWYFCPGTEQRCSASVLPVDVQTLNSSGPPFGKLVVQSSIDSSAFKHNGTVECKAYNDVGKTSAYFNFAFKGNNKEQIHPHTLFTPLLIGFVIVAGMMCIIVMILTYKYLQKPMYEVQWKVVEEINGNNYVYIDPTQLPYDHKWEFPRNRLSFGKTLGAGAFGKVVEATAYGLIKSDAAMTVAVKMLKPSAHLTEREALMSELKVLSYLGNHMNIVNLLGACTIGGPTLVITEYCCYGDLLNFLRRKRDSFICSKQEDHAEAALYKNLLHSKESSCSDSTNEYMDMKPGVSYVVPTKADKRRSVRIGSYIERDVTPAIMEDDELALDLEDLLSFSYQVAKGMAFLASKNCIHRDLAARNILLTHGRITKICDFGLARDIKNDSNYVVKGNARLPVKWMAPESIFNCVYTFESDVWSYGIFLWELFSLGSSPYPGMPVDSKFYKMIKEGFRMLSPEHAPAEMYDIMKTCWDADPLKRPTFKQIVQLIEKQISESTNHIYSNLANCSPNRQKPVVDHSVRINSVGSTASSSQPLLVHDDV
compound,measurement,setting,value
COc1cc2c(Oc3ccc(NC(=O)c4nn(-c5ccccc5F)c(=O)n4C)cc3F)ccnc2cc1OCCCN1CCN(C)CC1,IC50,[1],3.38 nM
same,IC50,[2],1.57 nM
same,IC50,[3],> 10000 nM
same,Ratio IC50,[4],1.1 - 2.3
same,Ratio IC50,[5],1.1 - 2.3
same,IC50,[6],8.19 nM
same,IC50,[7],140 nM
same,IC50,[8],30 nM
same,IC50,[9],480 nM
same,Ratio IC50,[10],1.1 - 2.3
same,IC50,[11],95.2 nM
same,Ratio IC50,[12],306
same,IC50,[13],141 nM
same,IC50,[14],110 nM
same,Ratio IC50,[15],1.1 - 2.3
same,IC50,[16],80 nM
